Laboratory results: ChEMBL document CHEMBL1932998, “Design, synthesis and evaluation of polar head group containing 2-keto-oxazole inhibitors of FAAH” (Bioorg Med Chem, 2012)
Active and inactive are the calls of the source. No cut-off for these calls is given here.

Assays:
[1] = target: T1, Fatty-acid amide hydrolase 1 (Rattus norvegicus) (UniProt P97612); experiment: Inhibition of Sprague-Dawley rat brain FAAH assessed as residual activity at 10 uM after 60 mins by reverse phase HPLC-based fluorescence method
T1 sequence (whole entry): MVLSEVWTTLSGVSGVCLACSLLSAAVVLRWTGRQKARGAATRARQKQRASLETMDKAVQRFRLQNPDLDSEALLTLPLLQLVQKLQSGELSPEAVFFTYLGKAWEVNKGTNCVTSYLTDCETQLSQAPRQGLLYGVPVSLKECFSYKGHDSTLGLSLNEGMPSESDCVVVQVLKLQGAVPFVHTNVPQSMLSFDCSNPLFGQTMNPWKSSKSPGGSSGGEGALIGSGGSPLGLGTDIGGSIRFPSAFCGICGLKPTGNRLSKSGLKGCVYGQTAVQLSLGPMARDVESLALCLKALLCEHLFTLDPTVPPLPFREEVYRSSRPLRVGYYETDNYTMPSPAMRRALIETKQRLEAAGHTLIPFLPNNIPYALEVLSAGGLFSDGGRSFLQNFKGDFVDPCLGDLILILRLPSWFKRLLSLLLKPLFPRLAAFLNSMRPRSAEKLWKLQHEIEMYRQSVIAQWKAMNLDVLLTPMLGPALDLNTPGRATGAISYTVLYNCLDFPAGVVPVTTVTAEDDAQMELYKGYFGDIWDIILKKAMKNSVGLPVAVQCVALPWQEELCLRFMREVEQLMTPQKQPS

[2] = target: T2, Fatty-acid amide hydrolase 1 (Rattus norvegicus, UniProt P97612); experiment: (§1) Inhibition of Sprague-Dawley rat brain microsome FAAH assessed as reduction in 4-pyren-1-ylbutanoic acid release after 60 mins by reverse phase HPLC-based fluorescence method
T2 sequence (P97612 whole entry): T1 sequence (whole entry)

[3] = target: T1, Fatty-acid amide hydrolase 1 (Rattus norvegicus); experiment: as §1
[4] = Inhibition of cPLA2alpha at 1 uM
[5] = target: Acyl-protein thioesterase 1 (Homo sapiens) (UniProt O75608); experiment: Inhibition of APT1 at 50 uM
[6] = target: Acyl-protein thioesterase 2 (Homo sapiens) (UniProt O95372); experiment: Inhibition of APT2 at 50 uM
Chain of Acyl-protein thioesterase 2 (Homo sapiens) (O95372 whole entry): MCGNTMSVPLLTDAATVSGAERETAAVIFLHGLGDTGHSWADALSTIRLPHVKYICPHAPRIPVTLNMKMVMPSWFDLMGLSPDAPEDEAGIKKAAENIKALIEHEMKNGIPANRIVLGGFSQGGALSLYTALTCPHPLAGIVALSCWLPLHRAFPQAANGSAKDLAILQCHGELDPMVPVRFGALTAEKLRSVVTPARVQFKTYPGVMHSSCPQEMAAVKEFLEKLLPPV

Chain of Acyl-protein thioesterase 1 (Homo sapiens) (O75608 whole entry): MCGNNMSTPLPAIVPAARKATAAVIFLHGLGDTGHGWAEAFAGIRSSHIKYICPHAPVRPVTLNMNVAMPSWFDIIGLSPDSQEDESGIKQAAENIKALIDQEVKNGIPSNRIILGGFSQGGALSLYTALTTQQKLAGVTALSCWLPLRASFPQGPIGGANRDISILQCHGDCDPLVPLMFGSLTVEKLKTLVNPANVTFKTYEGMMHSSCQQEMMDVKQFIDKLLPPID

In the case of `CCCCCCCC(=O)c1ncc(CCCSCCCN(C)C)o1`, the Activity [1] is reported as 64%.

Compound `Cc1nc(-c2ccccc2)c(-c2ccccc2)n1CCCCCCNC(=O)Oc1ccccc1` has an IC50 [2] of 340 nM.

With `CCCCCCCC(=O)c1ncc(CCCS(=O)(=O)CCC[N+](C)(C)C)o1` the Activity [1] was 53%.

For `CCCCCCCCCCCC(=O)c1ncc(CCCCSCCCN(C)C)o1`, the inhibition [3] was “inactive” and the Activity [1] was 49%.

In the case of `CCCCCCCCCCCC(=O)c1ncc(CCCCS(=O)(=O)CCCN(C)C)o1`, the inhibition [3] is reported as “inactive” and the Activity [1] is reported as 32%.

For `CCCCCCCCCCCC(=O)c1ncc(CCCCCSCCCN(C)C)o1`, the inhibition [3] was “inactive” and the Activity [1] was 64%.

In the case of `CCCCCCCCCCCC(=O)c1ncc(CCCCCS(=O)(=O)CCC[N+](C)(C)C)o1`, the inhibition [3] is reported as “inactive” and the Activity [1] is reported as 57%.

Work on `CCCCCCCC(=O)c1ncc(CCCCSCCCN(C)C)o1` yielded an Activity [1] of 48%.

With `CCCCCCCC(=O)c1ncc(CCCCCCS(=O)(=O)CCCN(C)C)o1` the Activity [1] was 62%.

In the case of `CCCCCCCCCCCC(=O)c1ncc(CCCS(=O)(=O)CCCN(C)C)o1`, the IC50 [2] is reported as 290 nM, the Activity [1] is reported as 2% and the inhibition [4] is reported as “inactive”. The inhibition [5] was “inactive” and the inhibition [6] was “inactive”.

With `CCCCCCCCCCCC(=O)c1ncc(CCCS(=O)(=O)CCC[N+](C)(C)C)o1` the IC50 [2] was 1900 nM and the Activity [1] was 13%.

`CCCCCCCC(=O)c1ncc(CCS(=O)(=O)CCC[N+](C)(C)C)o1` gave an Activity [1] of 61%.

For `CCCCCCCC(=O)c1ncc(CCCCCCSCCC[N+](C)(C)C)o1`, the Activity [1] was 82%.

Compound `CCCCCCCC(=O)c1ncc(CCCCS(=O)(=O)CCCN(C)C)o1` has an Activity [1] of 59%.

For `CCCCCCCCCCCC(=O)c1ncc(CCCCCCS(=O)(=O)CCC[N+](C)(C)C)o1`, the inhibition [3] was “inactive” and the Activity [1] was 31%.

In the case of `CCCCCCCC(=O)c1ncc(CCSCCC[N+](C)(C)C)o1`, the Activity [1] is reported as “inactive”.

With `CCCCCCCCCCCC(=O)c1ncc(CCCCCCSCCC[N+](C)(C)C)o1` the inhibition [3] was “inactive” and the Activity [1] was 71%.

`CCCCCCCC(=O)c1ncc(CCCCCSCCCN(C)C)o1` showed an Activity [1] of 78%.

For `O=C(CCCCCc1ccccc1)c1nc2ncccc2o1`, the IC50 [2] was 2.9 nM.

Work on `CCCCCCCC(=O)c1ncc(CCCCCCSCCCN(C)C)o1` yielded an Activity [1] of 78%.

In the case of `CCCCCCCCCCCC(=O)c1ncc(CCCCS(=O)(=O)CCC[N+](C)(C)C)o1`, the inhibition [3] is reported as “inactive” and the Activity [1] is reported as 49%.

In the case of `CCCCCCCCCCCC(=O)c1ncc(CCS(=O)(=O)CCC[N+](C)(C)C)o1`, the IC50 [2] is reported as 1400 nM and the Activity [1] is reported as 11%.

With `CCCCCCCCCCCC(=O)c1ncc(CCS(=O)(=O)CCCN(C)C)o1` the IC50 [2] was 370 nM and the Activity [1] was 3%.

For `CCCCCCCCCCCC(=O)c1ncc(CCCCSCCC[N+](C)(C)C)o1`, the inhibition [3] was “inactive” and the Activity [1] was 78%.

`CCCCCCCC(=O)c1ncc(CCCCCS(=O)(=O)CCCN(C)C)o1` showed an Activity [1] of 73%.

In the case of `CCCCCCCC(=O)c1ncc(CCSCCCN(C)C)o1`, the Activity [1] is reported as 34%.

Work on `CCCCCCCC(=O)c1ncc(CCCS(=O)(=O)CCCN(C)C)o1` yielded an IC50 [2] of 2400 nM and an Activity [1] of 22%.

For `CCCCCCCCCCCC(=O)c1ncc(CCCSCCCN(C)C)o1`, the inhibition [3] was “inactive” and the Activity [1] was 40%.

`CCCCCCCC(=O)c1ncc(CCCCSCCC[N+](C)(C)C)o1` showed an Activity [1] of 68%.

In the case of `CCCCCCCCCCCC(=O)c1ncc(CCCCCS(=O)(=O)CCCN(C)C)o1`, the inhibition [3] is reported as “inactive” and the Activity [1] is reported as 53%.

With `CCCCCCCC(=O)c1ncc(CCS(=O)(=O)CCCN(C)C)o1` the IC50 [2] was 2000 nM and the Activity [1] was 23%.

With `CCCCCCCCCCCC(=O)c1ncc(CCSCCCN(C)C)o1` the inhibition [3] was “inactive” and the Activity [1] was 27%.

With `CCCCCCCC(=O)c1ncc(CCCCS(=O)(=O)CCC[N+](C)(C)C)o1` the Activity [1] was 83%.

With `CCCCCCCCCCCC(=O)c1ncc(CCCCCCSCCCN(C)C)o1` the inhibition [3] was “inactive” and the Activity [1] was 72%.

With `CCCCCCCC(=O)c1ncc(CCCCCS(=O)(=O)CCC[N+](C)(C)C)o1` the Activity [1] was 70%.

With `CCCCCCCCCCCC(=O)c1ncc(CCCCCCS(=O)(=O)CCCN(C)C)o1` the inhibition [3] was “inactive” and the Activity [1] was 51%.

With `CCCCCCCCCCCC(=O)c1ncc(CCSCCC[N+](C)(C)C)o1` the inhibition [3] was “inactive” and the Activity [1] was 78%.
